Experimental data taken from patent EP0212822A1, “A composition containing a plant growth regulator and an alkanol and a method of using the same” (ICI AMERICAS INC., priority 1985, dated 1987).
“Also recorded” adds a separate entry of the source.

Tests used:
Vicia faba (Broadbean) = test: Stem injection with hypodermic syringe, growth as % of control; format: in vivo; settings: 0.1 ml injected, averaged over four replications
Description: 10 grams of PGR were dissolved in 1 liter of solvent at room temperature and stirred until the solution was clean, approximately 20 minutes. 0.1 ml of the solution was injected, […] above the soil level, in Vicia faba (Broadbean) with a hypodermic syringe.

[1] = test system: Liquidambar styraciflua (Sweetgum); test: Trunk injection of PGR in ethanol or methanol, ratings; format: in vivo
Description: The examples which follow exemplify the improvements obtained by this invention. However, these examples are not intended to limit the scope of the invention. In Examples 1-41, the subject trees were injected at a distance approximately one foot from the soil line by drilling 7/32 inch diameter holes to a 2 inch depth at a 30-45° angle tangential to the trunk with a pressure injector (150 psi) purchased from the Asplundh Tree Expert Co., Company No. 346-3502. The results are expressed in terms of Retardation and Uniformity Ratings. The Retardation rating scale is as follows: • 0 = no retardataion • 1 = 1-20% retardation • 2 = 21-40% retardation • 3 = 41-60% retardation • 4 = 61-80% retardation • 5 = 81-100% retardation
The Uniformity Rating is a measure of the consistency of response to the treatment between different branches of the tree. The Uniformity scale employed is as follows: • 0 = no effect from PGR • 1 = poor • 2 = fair • 3 = acceptable • 4 = very good • 5 = excellent
20 grams of PGR were dissolved in 1 liter of solvent at room temperature and stirred until the solution was clear, approximately 20 minutes. The solution was injected into the trunk of Liquidambar styraciflua (Sweetgum).

[2] = Adsorption of tracer dyes to sawdust; format: physicochemical, Birch and Ash
Description: 0.1 g of methylene blue and 0.1 g of acid fuschin were each dissolved in 1 liter of methanol (Me), […] methanol/water (Me/Wa) and water (Wa). 2 g (fresh weight) of sawdust taken from the active conductive tissues of Birch and Ash were combined with 20 ml of solution. The dye solutions were shaken overnight. The supernatant was decanted and the quantity of dye remaining in solution estimated by spectroscopy.

[3] = 14 days, 10 grams of PGR in 1 liter Ethanol
[4] = 14 days, 10 grams of PGR in 1 liter Methanol
[5] = 21 days, 10 grams of PGR in 1 liter Ethanol
[6] = 21 days, 10 grams of PGR in 1 liter Methanol
[7] = week 2, 20 grams of PGR in 1 liter Ethanol
[8] = week 2, 20 grams of PGR in 1 liter Methanol
[9] = week 6, 20 grams of PGR in 1 liter Ethanol
[10] = week 6, 20 grams of PGR in 1 liter Methanol

SMILES	Growth (% Control) At Indicated Days After Treatment (Vicia faba (Broadbean); [3])	Growth (% Control) At Indicated Days After Treatment (Vicia faba (Broadbean); [4])	Growth (% Control) At Indicated Days After Treatment (Vicia faba (Broadbean); [5])	Growth (% Control) At Indicated Days After Treatment (Vicia faba (Broadbean); [6])	Retardation/ Uniformity Ratings at Indicated Week After Treatment [1, 7]	Retardation/ Uniformity Ratings at Indicated Week After Treatment [1, 8]	Retardation/ Uniformity Ratings at Indicated Week After Treatment [1, 9]	Retardation/ Uniformity Ratings at Indicated Week After Treatment [1, 10]	binding of dye to wood ([2]; either solvent (water and methanol))	binding of dye to wood ([2]; methanol as solvent)	binding of dye to wood ([2]; methanol as solvent, listed as Methylene blue)	binding of dye to wood ([2]; water as solvent)	binding of dye to wood ([2]; water as solvent, listed as Methylene blue)
CC(C)(C)C(O)C(Cc1ccc(Cl)cc1)n1cncn1 (stereo not drawn) [PGR-1]	13 % Control	12 % Control	18 % Control	17 % Control	1 (1 = 1-20% retardation)	1 (1 = 1-20% retardation)	3 (3 = 41-60% retardation)	4 (4 = 61-80% retardation)	–	–	–	–	–
CC(C)C(O)(c1ccc(OC(F)(F)F)cc1)c1cncnc1 (stereo not drawn) [PGR-2]	6 % Control	10 % Control	7 % Control	10 % Control	1 (1 = 1-20% retardation)	1 (1 = 1-20% retardation)	3 (3 = 41-60% retardation)	3 (3 = 41-60% retardation)	–	–	–	–	–
CC1=CC(=C(c2ccc(N)c(S(=O)(=O)O)c2)c2ccc(N)c(S(=O)(=O)O)c2)C=C(S(=O)(=O)O)C1=N [acid fuschin]	–	–	–	–	–	–	–	–	binds only partially; also recorded: binds weakly	–	–	–	–
CN(C)c1ccc2nc3ccc(=[N+](C)C)cc-3sc2c1 [methylene blue]	–	–	–	–	–	–	–	–	–	binds weakly	weakly	binding almost completely	binds strongly
